# Laboratory results published in ChEMBL document CHEMBL5126653, “Targeted Degradation of Androgen Receptor for the Potential Treatment of Prostate Cancer” (ACS Med Chem Lett, 2022).
# Target: Protein cereblon/Androgen receptor (Homo sapiens) (UniProt P10275+Q96SW2)
# Experiment: In vivo protac activity at CRBN/AR in human VCaP cells xenografted in CB17 mouse assessed as increase in Androgen receptor degradation at 10 mg/kg, po for 16 hrs by ELISA
# Assay type: functional, organism-based
# Chain of Protein cereblon/Androgen receptor (Homo sapiens) (P10275 whole entry, looked up): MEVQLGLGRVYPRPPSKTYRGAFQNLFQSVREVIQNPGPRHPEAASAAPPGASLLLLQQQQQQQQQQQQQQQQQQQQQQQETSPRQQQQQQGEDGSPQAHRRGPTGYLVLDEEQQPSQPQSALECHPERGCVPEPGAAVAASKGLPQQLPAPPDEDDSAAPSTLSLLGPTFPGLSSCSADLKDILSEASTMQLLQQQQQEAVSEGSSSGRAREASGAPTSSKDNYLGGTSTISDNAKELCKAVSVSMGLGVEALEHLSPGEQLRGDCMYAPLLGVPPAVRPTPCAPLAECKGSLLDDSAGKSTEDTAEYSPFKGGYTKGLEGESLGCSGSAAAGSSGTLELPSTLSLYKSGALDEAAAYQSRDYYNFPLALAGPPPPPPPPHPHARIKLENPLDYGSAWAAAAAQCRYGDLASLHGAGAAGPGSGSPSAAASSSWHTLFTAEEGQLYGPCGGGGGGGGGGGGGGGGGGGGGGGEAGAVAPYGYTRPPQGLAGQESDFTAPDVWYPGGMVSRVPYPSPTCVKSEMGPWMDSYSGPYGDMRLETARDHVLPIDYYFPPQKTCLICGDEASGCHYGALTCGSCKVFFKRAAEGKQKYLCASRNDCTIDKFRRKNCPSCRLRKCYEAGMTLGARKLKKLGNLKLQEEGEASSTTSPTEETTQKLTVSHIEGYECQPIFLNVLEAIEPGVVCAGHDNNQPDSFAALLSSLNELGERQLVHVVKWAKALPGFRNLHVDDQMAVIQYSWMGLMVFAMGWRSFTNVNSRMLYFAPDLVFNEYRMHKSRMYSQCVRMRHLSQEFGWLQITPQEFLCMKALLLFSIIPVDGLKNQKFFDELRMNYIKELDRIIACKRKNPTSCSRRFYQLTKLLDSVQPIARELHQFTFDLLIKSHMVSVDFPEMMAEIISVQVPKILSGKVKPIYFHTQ
# Chain of Protein cereblon/Androgen receptor (Homo sapiens) (Q96SW2 whole entry, looked up): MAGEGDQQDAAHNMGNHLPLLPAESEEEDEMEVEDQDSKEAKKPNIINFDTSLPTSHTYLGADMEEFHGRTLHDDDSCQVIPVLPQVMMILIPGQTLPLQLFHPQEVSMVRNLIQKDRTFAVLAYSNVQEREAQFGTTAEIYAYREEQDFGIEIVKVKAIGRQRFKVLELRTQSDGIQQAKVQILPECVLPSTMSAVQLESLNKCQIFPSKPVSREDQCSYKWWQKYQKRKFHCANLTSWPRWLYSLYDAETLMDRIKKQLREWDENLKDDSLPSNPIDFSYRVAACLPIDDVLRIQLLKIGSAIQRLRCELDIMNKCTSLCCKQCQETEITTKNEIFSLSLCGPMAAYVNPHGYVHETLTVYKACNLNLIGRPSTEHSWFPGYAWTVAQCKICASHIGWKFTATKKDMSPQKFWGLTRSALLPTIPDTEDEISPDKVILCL
row,Activity,SMILES
1,< 1%,CC1(C)[C@H](NC(=O)c2cnc(N3CCN(CCCCCOc4ccc5c(c4)C(=O)N(C4CCC(=O)NC4=O)C5=O)CC3)nc2)C(C)(C)[C@H]1Oc1ccc(C#N)c(Cl)c1 (stereo not given in full)
2,< 1%,CC1(C)[C@H](NC(=O)c2ccc(N3CCN(CCCCCOc4ccc5c(c4)C(=O)N(C4CCC(=O)NC4=O)C5=O)CC3)nc2)C(C)(C)[C@H]1Oc1ccc(C#N)c(Cl)c1 (stereo not given in full)
3,1%,CC1(C)[C@H](NC(=O)c2ncc(N3CCN(CCCCCOc4ccc5c(c4)C(=O)N(C4CCC(=O)NC4=O)C5=O)CC3)cn2)C(C)(C)[C@H]1Oc1ccc(C#N)c(Cl)c1 (stereo not given in full)
4,< 1%,CC1(C)[C@H](NC(=O)c2ccc(N3CCN(CCCOc4ccc5c(c4)C(=O)N(C4CCC(=O)NC4=O)C5=O)CC3)cc2)C(C)(C)[C@H]1Oc1ccc(C#N)c(Cl)c1 (stereo not given in full)

# Second part, the compound before the results:
row,SMILES,Activity
1,CC1(C)[C@H](NC(=O)c2ccc(C3CCC(CN4CCN(c5ccc6c(c5)C(=O)N(C5CCC(=O)NC5=O)C6=O)CC4)CC3)cc2)C(C)(C)[C@H]1Oc1ccc(C#N)c(Cl)c1 (stereo not given in full),1%
2,CC1(C)[C@H](NC(=O)c2ccc(N3CCN(CC4CCN(c5ccc6c(c5)C(=O)N(C5CCC(=O)NC5=O)C6=O)CC4)CC3)cc2)C(C)(C)[C@H]1Oc1ccc(C#N)c(Cl)c1 (stereo not given in full),1%
3,CC1(C)[C@H](NC(=O)c2ccc(N3CCC(CN4CCN(c5ccc6c(c5)C(=O)N(C5CCC(=O)NC5=O)C6=O)CC4)CC3)nc2)C(C)(C)[C@H]1Oc1ccc(C#N)c(Cl)c1 (stereo not given in full),< 1%
4,CC1(C)[C@H](NC(=O)c2ccc(N3CCN(CC4CN(c5ccc6c(c5)C(=O)N(C5CCC(=O)NC5=O)C6=O)C4)CC3)cc2)C(C)(C)[C@H]1Oc1ccc(C#N)c(Cl)c1 (stereo not given in full),< 1%
5,CC1(C)[C@H](NC(=O)c2ccc(CCCCN3CCN(c4ccc5c(c4)C(=O)N(C4CCC(=O)NC4=O)C5=O)CC3)nc2)C(C)(C)[C@H]1Oc1ccc(C#N)c(Cl)c1 (stereo not given in full),10%
6,CC1(C)[C@H](NC(=O)c2cnc(N3CCC(CN4CCN(c5ccc6c(c5)C(=O)N(C5CCC(=O)NC5=O)C6=O)CC4)CC3)nc2)C(C)(C)[C@H]1Oc1ccc(C#N)c(Cl)c1 (stereo not given in full),< 1%
